Assay: CO2 wash test of model fragrance A on cotton fabric (supercritical fluid extractor, GC FID)
Format: physicochemical
Conditions: for fraction left on fabric: from the wash test of Table 2; for % Left on Fabric: supercritical CO2 43° C., 77 bar, density 0.25 g/ml, cotton fabric
Procedure: The device used for this experiment was an Hewlett Packard 7680T SFE Supercritical Fluid Extractor. 1 g of cotton fabric was put into a 7 ml Thimble. 0.01 grams of the model fragrance A was applied to the uppermost part of the fabric representing the earliest stage of the CO2 cleaning process.
The CO2 properties used were: density=0.25 g/ml, pressure=77 bar (Pc=73.8 bar), temperature=43° C. These were supercritical as the Critical Temperature for CO2 is 31.1° C.
CO2 was introduced into the thimble and allowed to soak for 2 min. The thimble was flushed with CO2 for 5 min at a flow rate of 2 ml/min. The CO2/fragrance mixture was carried into the trap where the CO2 was evaporated leaving the fragrance on the analytical trap packing being maintained at −30 deg C. The trap was rinsed with Acetone. The fragrance/acetone mixture was analyzed using gas chromatography with flame ionization detection (GC FID).
The results on the GC FID were used to calculate the % of each fragrance ingredient that was retained on the fabric. (90% means that 90% of the fragrance was substantive on the fabric).

Row | fraction left on fabric | % Left on Fabric | Molecule
1 | 0.691 | 69% | Terpineol, Pure
2 | 0.977 | 98% | C=C(C)[C@H]1CC=C(C)CC1 [Limonene D]
3 | 0.989 | 99% | CC1=CCC2CC1C2(C)C (stereo not drawn) [Pinene, Alpha, alpha-Pinene]
4 | 0.799 | 80% | CC(=O)OCc1ccccc1 [Benzyl Acetate]
5 | 0.698 | 70% | CC(=O)OCCc1ccccc1 [Phenyl Ethyl Acetate]
6 | 0.846 | 85% | CC(CC=O)CCCC(C)(C)O (centres unmarked) [Hydroxy Citronellal P]
7 | 0.741 | 74% | CC(=O)O[C@@H]1C[C@H]2CC[C@]1(C)C2(C)C (racemic) [Iso Bornyl Acetate]
8 | 0.794 | 79% | C=CCc1ccc(O)c(OC)c1 [Eugenol]
9 | 0.689 | 69% | CC(=O)OC(C)(C)Cc1ccccc1 [Dimethyl Benzyl Carbinyl Acetate]
10 | 0.769 | 77% | CC(C)=CCC/C(C)=C/CO [Geraniol, Supra]
11 |  | 83% | OCCc1ccccc1 [Phenyl Ethyl Alcohol]
12 | 0.737 | 74% | C=CC(C)CCCC(C)(C)O (centres unmarked) [Dihydro Myrcenol]
13 | 0.839 | 84% | C[C@@H]1CC[C@H]2C(C)(C)[C@H]3C[C@@]12CC[C@@]3(C)O [Cedrol]
14 | 0.908 | 91% | O=C(OCc1ccccc1)c1ccccc1O [Benzyl Salicylate]
15 | 0.759 | 76% | CC(C)CCOC(=O)c1ccccc1O [Iso Amyl Salicylate]
16 | 0.863 | 86% | CCCCCCC(C=O)=Cc1ccccc1 [Hexyl Cinnamic Aldehyde]
17 | 0.729 | 73% | CC(=O)/C=C/C1C(C)=CCCC1(C)C (stereo not drawn) [Ionone, Alpha]
18 | 0.687 | 69% | CC(=O)OC1CCC(C(C)(C)C)CC1 (centres unmarked) [Oryclon/Vertenex]
19 | 0.928 | 93% | O=C1CCCCCCCCCCCC(=O)OCCO1 [Ethylene Brassylate]
20 | 0.945 | 94% | O=c1ccc2ccccc2o1 [Coumarin]
21 | 0.763 | 76% | CC(C)=CCCC(C)CCO (centres unmarked) [Gitronellol 950, Citronellol 950]
22 | 0.781 | 78% | CC(C=O)Cc1ccc(C(C)(C)C)cc1 (centres unmarked) [Lilial]
23 | 0.995 | 100% | C=C1CCC2CC1C2(C)C (stereo not drawn) [Pinene, Beta, beta-Pinene]
24 |  | 74% | Methyl Ionone Gamma Coeur
25 | 0.83 | 85% | CCCCC/C(C=O)=C/c1ccccc1 [Amyl Cinnamic Aldehyde]
26 | 0.969 | 97% | CC(=O)OCC=C(C)C [Prenyl acetate]

Row | Molecule | fraction left on fabric | % Left on Fabric
27 | CC(=O)O[C@]1(C)CC[C@@]23C[C@@H]1C(C)(C)[C@@H]2CC[C@H]3C [Cedryl Acetate] | 0.834 | 83%
28 | CC(=O)c1c(C)c([N+](=O)[O-])c(C(C)(C)C)c([N+](=O)[O-])c1C [Musk Ketone] | 0.905 | 91%
29 | CCOC(=O)c1ccccc1C(=O)OCC [Diethyl Phthalate] | 0.807 | 81%

From patent US20030087774A1, “Fragrance compositions for the CO2 washing process” (priority 2001, published 2003)
